In the supplement of paper PMC10307832:

Columns and labels:
Assay in all cases: relative viability (nuclei count vs DMSO), 5 days (fraction); higher = more cells survive
Quizartinib + Foretinib = compound: CC(C)(C)c1cc(NC(=O)Nc2ccc(-c3cn4c(n3)sc3cc(OCCN5CCOCC5)ccc34)cc2)no1 [Quizartinib] + COc1cc2c(Oc3ccc(NC(=O)C4(C(=O)Nc5ccc(F)cc5)CC4)cc3F)ccnc2cc1OCCCN1CCOCC1 [Foretinib] (partner 0.25 µM)
Outline: (§1)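 Cells from lung cancer lines were seeded into 1536-well plates and, one day later, dosed by pin tool. Treatments were either a single drug or a fixed dose of an anchor drug with five library-drug doses (not always all listed) in √10 steps. After 5 days, nuclei were stained in a one-step fixation (final 0.05% Triton X-100, 1% formaldehyde, 1 ug/ml Hoechst) and counted on 4× images, and relative viability is the treated-to-vehicle nuclei ratio, as the median of duplicate plates.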

YM155 + Trametinib = compound: COCC[n+]1c2c(n(Cc3cnccn3)c1C)C(=O)c1ccccc1C2=O [YM155] + CC(=O)Nc1cccc(-n2c(=O)n(C3CC3)c(=O)c3c(Nc4ccc(I)cc4F)n(C)c(=O)c(C)c32)c1 [Trametinib] (partner 0.02 µM)
Outline: as §1

Quizartinib + Vorinostat = compound: CC(C)(C)c1cc(NC(=O)Nc2ccc(-c3cn4c(n3)sc3cc(OCCN5CCOCC5)ccc34)cc2)no1 [Quizartinib] + O=C(CCCCCCC(=O)Nc1ccccc1)NO [Vorinostat] (partner 1 µM)
Outline: as §1

YM155 + Navitoclax = compound: COCC[n+]1c2c(n(Cc3cnccn3)c1C)C(=O)c1ccccc1C2=O [YM155] + CC1(C)CCC(c2ccc(Cl)cc2)=C(CN2CCN(c3ccc(C(=O)NS(=O)(=O)c4ccc(N[C@H](CCN5CCOCC5)CSc5ccccc5)c(S(=O)(=O)C(F)(F)F)c4)cc3)CC2)C1 [Navitoclax] (partner 0.5 µM)
Outline: as §1

Cell Line	relative viability (Quizartinib + Foretinib; first compound 0.001 µM)	relative viability (Quizartinib + Foretinib; first compound 0.003162 µM)	relative viability (Quizartinib + Foretinib; first compound 0.01 µM)	relative viability (Quizartinib + Foretinib; first compound 0.03162 µM)	relative viability (Quizartinib + Foretinib; first compound 0.1 µM)	relative viability (YM155 + Trametinib; first compound 0.002 µM)	relative viability (YM155 + Trametinib; first compound 0.006325 µM)	relative viability (YM155 + Trametinib; first compound 0.02 µM)	relative viability (YM155 + Trametinib; first compound 0.06325 µM)	relative viability (Quizartinib + Vorinostat; first compound 0.001 µM)	relative viability (Quizartinib + Vorinostat; first compound 0.003162 µM)	relative viability (Quizartinib + Vorinostat; first compound 0.01 µM)	relative viability (Quizartinib + Vorinostat; first compound 0.03162 µM)	relative viability (Quizartinib + Vorinostat; first compound 0.1 µM)	relative viability (YM155 + Navitoclax; first compound 0.002 µM)	relative viability (YM155 + Navitoclax; first compound 0.006325 µM)	relative viability (YM155 + Navitoclax; first compound 0.02 µM)	relative viability (YM155 + Navitoclax; first compound 0.06325 µM)
LCLC-103H	0.786	0.7	0.8	0.788	0.995	0.647	0.637	0.674	0.716	0.743	0.735	0.663	0.812	0.779				
NCI-H1650	0.549	1.11	1.35		1.03	0.478	0.581	0.458	0.355	0.499	0.581	0.635		0.445	1.23	1.08	0.835	0.23
NCI-H1703	0.514	0.35	0.371	0.406	0.282										1.07	1.29	0.938	0.319
Calu-6	0.74	0.779	0.972	0.88	0.899										0.849	0.589	0.191	0.112
NCI-H2342	0.965	0.938	1.11	1	0.988	0.738	0.71	0.829	0.757	0.804	0.717	0.669	0.69	0.617				
NCI-H522						0.625	0.711	0.71	0.75	0.803	0.849	0.818	0.874	0.834				
NCI-H1792						0.498	0.366	0.468	0.599						0.595	0.615	0.63	0.612
NCI-H1563	0.975	0.898	0.884	0.631	0.881													
ABC-1	0.64	0.993	1.1	0.929	0.846						1.24	0.963	0.793	1.65				
NCI-H358	0.613	0.796	0.634	0.438	0.642	0.142	0.153	0.167	0.14	0.733	0.572	0.803		0.815				
HCC-44						1.05	1.08	1.08	1.15	1.23	1.09	1.13	1.21	1.11	0.983	1.04	0.988	0.914
NCI-H661	0.963	0.945	1.13	0.994	1.01	0.496	0.558	0.598	0.525	0.724	0.812	0.87	0.807	0.888				
A549	0.949	0.975	1.08	0.818	1.05										1.28	1.24	1.11	0.14
NCI-H1623	0.694	0.884	0.831	0.844	0.859													
